Experimental data reported in patent US6737383B1, “Herbicidal oxadiazolidines” (priority 1999, dated 2004).

Experiments:
sugar beet = assay: Test B pre/postemergence sugar beet; type: in vivo, Beta vulgaris
Summary of the method: (§1)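 Test chemicals in a non-phytotoxic solvent mixture with surfactant were sprayed preemergence onto planted seeds and postemergence onto plants 2 to 18 cm tall (1- to 4-leaf stage). After twelve to sixteen days in a greenhouse, injury was visually rated against untreated controls from 0 (no effect) to 10 (complete control).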

bedstraw = assay: Test B pre/postemergence bedstraw; type: in vivo, Galium aparine; settings: Preemergence
Summary of the method: as §1

blackgrass = assay: Test B pre/postemergence blackgrass; type: in vivo, Alopecurus myosuroides
Summary of the method: as §1

pigweed = assay: Test B pre/postemergence pigweed; type: in vivo, Amaranthus retroflexus
Summary of the method: as §1

morningglory = assay: Test B pre/postemergence morningglory; type: in vivo, Ipomoea hederacea
Summary of the method: as §1

giant foxtail = assay: Test B pre/postemergence giant foxtail; type: in vivo, Setaria faberii
Summary of the method: as §1

rape = assay: Test B pre/postemergence rape; type: in vivo, Brassica napus
Summary of the method: as §1

wheat = assay: Test B pre/postemergence wheat; type: in vivo, Triticum aestivum
Summary of the method: as §1

rice = assay: Test B flood test rice; type: in vivo, Oryza sativa
Summary of the method: (§2)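 Each value is a visual injury score relative to controls, with 10 meaning complete control and 0 no effect. Evaluation took place twelve to sixteen days after the 2-leaf-stage plants were treated and kept in the greenhouse.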

smallflower flatsedge = assay: Test B flood test smallflower flatsedge; type: in vivo, Cyperus difformis
Summary of the method: as §2

bamyardgrass = assay: Test B flood test barnyardgrass; type: in vivo, Echinochloa crus-galli
Summary of the method: as §2

wild oat = assay: Test B pre/postemergence wild oat; type: in vivo, Avena fatua
Summary of the method: as §1

corn = assay: Test B pre/postemergence corn; type: in vivo, Zea mays
Summary of the method: as §1

purple nutsedge = assay: Test B pre/postemergence purple nutsedge; type: in vivo, Cyperus rotundus
Summary of the method: as §1

surinam grass = assay: Test B pre/postemergence surinam grass; type: in vivo, Brachiaria decumbens
Summary of the method: as §1

crabgrass = assay: Test B pre/postemergence crabgrass; type: in vivo, Digitaria sanguinalis
Summary of the method: as §1

[1] = Postemergence, Rate 62 g/ha, scale 0 to 10, 0 is no effect, 10 is complete control
[2] = Postemergence, Rate 125 g/ha, scale of 0 to 10 where 0 is no effect and 10 is complete control
[3] = Postemergence, Rate 250 g/ha, scale of 0 to 10, 0 is no effect, 10 is complete control
[4] = Preemergence, Rate 62 g/ha, scale 0 to 10 (0 no effect, 10 complete control)
[5] = Preemergence, Rate 125 g/ha, scale of 0 to 10 where 0 is no effect and 10 is complete control
[6] = Preemergence, Rate 250 g/ha, scale 0 to 10 (0 no effect, 10 complete control)
[7] = Preemergence, Rate 500 g/ha, scale of 0 to 10 where 0 is no effect and 10 is complete control
[8] = Postemergence, Rate 500 g/ha, scale of 0 to 10 where 0 is no effect and 10 is complete control
[9] = Rate 62 g/ha, flood test species, Pre-emergence, visual evaluation after twelve to sixteen days
[10] = Rate 125 g/ha, under heading Pre-emergence, flood test species, visual evaluation after twelve to sixteen days
[11] = Rate 250 g/ha, Pre-emergence (flood test species), scale 0 to 10, 0 is no effect, 10 is complete control
[12] = Rate 500 g/ha, Pre-emergence section of Table B, 0 to 10 scale (0 no effect, 10 complete control)

`CC(C)N(C(=O)n1oc(=O)n(CSC#N)c1=O)c1ccc(F)cc1` [Compound 618] was tested, and the “Plant response rating, Sugarbeets” value (sugar beet; [1]) was 0, the “Plant response rating, Sugarbeets” value (sugar beet; [2]) was 0 and the “Sugarbeets plant response rating” value (sugar beet; [3]) was 0. The “Sugarbeets plant response rating” value (sugar beet; [4]) was 0, the “Sugarbeets plant response rating” value (sugar beet; [5]) was 0 and the “Plant response rating, Sugarbeets” value (sugar beet; [6]) was 0. For the same compound, the “Plant response rating, Sugarbeets” value (sugar beet; [7]) was 0, the “Bedstraw plant response rating” value (bedstraw; Rate 62 g/ha, scale 0 to 10 (0 no effect, 10 complete control)) was 0 and the “Bedstraw plant response rating” value (bedstraw; Rate 125 g/ha, scale of 0 to 10 where 0 is no effect and 10 is complete control) was 0. The “Plant response rating, Bedstraw” value (bedstraw; Rate 250 g/ha, scale 0 to 10 (0 no effect, 10 complete control)) was 0, the “Bedstraw plant response rating” value (bedstraw; Rate 500 g/ha, scale of 0 to 10 where 0 is no effect and 10 is complete control) was 0 and the “Plant response rating, Blackgrass” value (blackgrass; [1]) was 0. For the same compound, the “Plant response rating, Blackgrass” value (blackgrass; [2]) was 0, the “Blackgrass plant response rating” value (blackgrass; [3]) was 0 and the “Plant response rating, Blackgrass” value (blackgrass; [8]) was 0. The “Blackgrass plant response rating” value (blackgrass; [4]) was 0, the “Blackgrass plant response rating” value (blackgrass; [5]) was 0 and the “Plant response rating, Blackgrass” value (blackgrass; [6]) was 0. The “Blackgrass plant response rating” value (blackgrass; [7]) was 0, the “Plant response rating, Redroot pigweed” value (pigweed; [1]) was 0 and the “Plant response rating, Redroot pigweed” value (pigweed; [2]) was 0. For the same compound, the “Redroot pigweed plant response rating” value (pigweed; [3]) was 0, the “Redroot pigweed plant response rating” value (pigweed; [4]) was 0 and the “Redroot pigweed plant response rating” value (pigweed; [5]) was 0. For the same compound, the “Plant response rating, Redroot pigweed” value (pigweed; [6]) was 0, the “Plant response rating, Redroot pigweed” value (pigweed; [7]) was 0 and the “Plant response rating, Morningglory” value (morningglory; [1]) was 0. The “Plant response rating, Morningglory” value (morningglory; [2]) was 0, the “Morningglory plant response rating” value (morningglory; [3]) was 0 and the “Plant response rating, Morningglory” value (morningglory; [8]) was 0. For the same compound, the “Morningglory plant response rating” value (morningglory; [4]) was 0, the “Morningglory plant response rating” value (morningglory; [5]) was 0 and the “Plant response rating, Morningglory” value (morningglory; [6]) was 0. The “Plant response rating, Morningglory” value (morningglory; [7]) was 0, the “Plant response rating, Giant foxtail” value (giant foxtail; [1]) was 0 and the “Plant response rating, Giant foxtail” value (giant foxtail; [2]) was 0. The “Giant foxtail plant response rating” value (giant foxtail; [3]) was 0, the “Plant response rating, Giant foxtail” value (giant foxtail; [8]) was 0 and the “Giant foxtail plant response rating” value (giant foxtail; [4]) was 2. For the same compound, the “Giant foxtail plant response rating” value (giant foxtail; [5]) was 2, the “Plant response rating, Giant foxtail” value (giant foxtail; [6]) was 2 and the “Plant response rating, Giant foxtail” value (giant foxtail; [7]) was 0. For the same compound, the “Plant response rating, Rape” value (rape; [1]) was 0, the “Plant response rating, Rape” value (rape; [2]) was 0 and the “Rape plant response rating” value (rape; [3]) was 0. The “Plant response rating, Rape” value (rape; [8]) was 0, the “Rape plant response rating” value (rape; [4]) was 0 and the “Rape plant response rating” value (rape; [5]) was 0. For the same compound, the “Plant response rating, Rape” value (rape; [6]) was 0, the “Plant response rating, Rape” value (rape; [7]) was 0 and the “Plant response rating, Wheat” value (wheat; [1]) was 0. The “Plant response rating, Wheat” value (wheat; [2]) was 0, the “Wheat plant response rating” value (wheat; [3]) was 0 and the “Wheat plant response rating” value (wheat; [4]) was 0. The “Wheat plant response rating” value (wheat; [5]) was 0, the “Plant response rating, Wheat” value (wheat; [6]) was 0 and the “Plant response rating, Wheat” value (wheat; [7]) was 0. The “Plant response rating, Rice (0 to 10 scale, 0 is no effect, 10 is complete control)” value (rice; [9]) was 0, the “Rice plant response rating (0 to 10 scale, 0 is no effect, 10 is complete control)” value (rice; [10]) was 0 and the “Rice plant response rating” value (rice; [11]) was 0. For the same compound, the “Rice plant response rating” value (rice; [12]) was 0, the “Plant response rating, S. Flatsedge (0 to 10 scale, 0 is no effect, 10 is complete control)” value (smallflower flatsedge; [9]) was 0 and the “S. Flatsedge plant response rating (0 to 10 scale, 0 is no effect, 10 is complete control)” value (smallflower flatsedge; [10]) was 0. The “S. Flatsedge plant response rating” value (smallflower flatsedge; [11]) was 0, the “S. Flatsedge plant response rating” value (smallflower flatsedge; [12]) was 0 and the “Plant response rating, Barnyardgrass (0 to 10 scale, 0 is no effect, 10 is complete control)” value (bamyardgrass; [9]) was 0. For the same compound, the “Barnyardgrass plant response rating (0 to 10 scale, 0 is no effect, 10 is complete control)” value (bamyardgrass; [10]) was 0, the “Barnyardgrass plant response rating” value (bamyardgrass; [11]) was 0 and the “Barnyardgrass plant response rating” value (bamyardgrass; [12]) was 0. For the same compound, the “Plant response rating, Wild oats” value (wild oat; [1]) was 0, the “Plant response rating, Wild oats” value (wild oat; [2]) was 0 and the “Wild oats plant response rating” value (wild oat; [3]) was 0. The “Wild oats plant response rating” value (wild oat; [4]) was 0, the “Wild oats plant response rating” value (wild oat; [5]) was 0 and the “Plant response rating, Wild oats” value (wild oat; [6]) was 0. For the same compound, the “Plant response rating, Wild oats” value (wild oat; [7]) was 0, the “Plant response rating, Corn” value (corn; [1]) was 0 and the “Plant response rating, Corn” value (corn; [2]) was 0. For the same compound, the “Corn plant response rating” value (corn; [3]) was 0, the “Plant response rating, Corn” value (corn; [8]) was 0 and the “Corn plant response rating” value (corn; [4]) was 0. For the same compound, the “Corn plant response rating” value (corn; [5]) was 0, the “Plant response rating, Corn” value (corn; [6]) was 0 and the “Plant response rating, Corn” value (corn; [7]) was 0. For the same compound, the “Plant response rating, Nutsedge” value (purple nutsedge; [1]) was 0, the “Plant response rating, Nutsedge” value (purple nutsedge; [2]) was 0 and the “Nutsedge plant response rating” value (purple nutsedge; [3]) was 0. The “Nutsedge plant response rating” value (purple nutsedge; [5]) was 0, the “Plant response rating, Nutsedge” value (purple nutsedge; [7]) was 0 and the “Plant response rating, B. signalgrass” value (surinam grass; [1]) was 0. The “Plant response rating, B. signalgrass” value (surinam grass; [2]) was 0, the “B. signalgrass plant response rating” value (surinam grass; [3]) was 0 and the “Plant response rating, B. signalgrass” value (surinam grass; [8]) was 0. For the same compound, the “B. signalgrass plant response rating” value (surinam grass; [4]) was 0, the “B. signalgrass plant response rating” value (surinam grass; [5]) was 0 and the “Plant response rating, B. signalgrass” value (surinam grass; [6]) was 0. The “B. signalgrass plant response rating” value (surinam grass; [7]) was 0, the “Plant response rating, Crabgrass” value (crabgrass; [1]) was 0 and the “Plant response rating, Crabgrass” value (crabgrass; [2]) was 0. For the same compound, the “Crabgrass plant response rating” value (crabgrass; [3]) was 0, the “Plant response rating, Crabgrass” value (crabgrass; [8]) was 0 and the “Crabgrass plant response rating” value (crabgrass; [4]) was 0. For the same compound, the “Crabgrass plant response rating” value (crabgrass; [5]) was 0, the “Plant response rating, Crabgrass” value (crabgrass; [6]) was 0 and the “Plant response rating, Crabgrass” value (crabgrass; [7]) was 2.
